Tested on: OPN production by human liver cancer-derived cell line HepG2
Test: OPN production by HepG2 cells (Human Osteopontin Immunoassay, per mg protein)
Format: cell-based
Settings: 2-day culture; for suppression of OPN production vs control group: significance level less than 1%
Experimental: The confirmation test was performed in the following manner. The compound 3 wad added to a culture liquid containing cells of a human non-small cell lung cancer-derived cell line A549 or a human liver cancer-derived cell line HepG2, and the amount of OPN in culture supernatant after 2-day culture was measured using Human Osteopontin Immunoassay kit (R&D systems) and compared with the OPN amount of a compound 3-free group (control group).
The compound 3 has also cell growth inhibitory effect. Therefore, in order to properly evaluate the OPN production-suppressing effect of the compound 3, 1×CCLR used in luciferase assay was added to cells remaining in each well after removal of culture supernatant to prepare a cell lysate, and the amount of protein in the cell lysate was measured using BCA Protein Assay Kit (Thermo Scientific). The influence of addition of the compound 3 on the amount of OPN production was evaluated by comparison of the amount of OPN per milligram of protein.
First, A549 cells or HepG2 cells were suspended in DMEM medium containing 10% FCS and 1% P/S at 4×10^4 cells/mL to obtain a cell suspension, and 500 μL of the cell suspension was dispensed into each well of a 24-well plate. In order to perform the test in triplicate, 3 wells were prepared for a control group and 3 wells were prepared for each test compound-treated group at each concentration. The 24-well plate was incubated in a CO2 incubator (at 37° C. and 5% CO2) for 24±4 hours.
The 3.75 mmol/L compound 3 solution or the 7.5 mmol/L compound 3 solution was added in an amount of 2 μL to each well in which HepG2 cells were cultured. Only DMSO was added to each control well in an amount of 2 μL.
The 24-well plate was rocked back and forth and side to side to mix the solution in each well, and was then incubated in a CO2 incubator (at 37° C. and 5% CO2) for 48±4 hours. Then, the total amount of culture supernatant was transferred into a 1.5 mL tube, and 500 μL of D-PBS(−) was added to each well in which cells are remained. […]

SMILES: CCCCCCCCCCCC(=O)[C@H]1C(=O)O[C@@H](C)C[C@@H]1C [Chemical formula 3]
- suppression of OPN production vs control group (15 μmol/L): significantly suppressed
- amount of OPN produced relative to control group (30 μmol/L): reduced to half or less
- suppression of OPN production vs control group (30 μmol/L): significantly suppressed
